Data taken from USRE49351E1, “Cytoprotective agent” (Biogen MA Inc., priority 2009, dated 2023).

Legend:
[1] = H-ORAC (hydrophilic oxygen radical absorbance capacity) assay; type: biochemical; conditions: sodium salt aqueous solution, phosphate buffer pH 7.4
Experimental: To study the free radical scavenging activity of a triprenyl phenol compound, the following H-ORAC (hydrophilic oxygen radical absorbance capacity) assay, and modified H-ORAC (mH-ORAC) assay were conducted.
SMTP compounds evaluated by H-ORAC were used respectively in a form of a sodium salt aqueous solution, and the compounds evaluated by mH-ORAC were used respectively in a form of an acetone solution.
In H-ORAC a test compound was diluted appropriately with a buffer solution (75 mM phosphate buffer solution, pH 7.4) and used for measurement. In mH-ORAC a test compound was diluted appropriately by a 50% (v/v) acetone solution, prepared by diluting an acetone solution with water, to prepare a solution of 40-fold the final concentration. […] As for the reference material Trolox, 500 μM/buffer solution was diluted appropriately with a buffer solution.
To a 96-well microplate (transparent, flat bottom, black wall) 50 μL of a test compound solution or a Trolox solution was placed, and additionally 100 μL of a fluorescein 140 nM/buffer solution as a fluorescent substance was added (final concentration 70 nM), followed by incubation at 37° C. for […].
As a free radical generator, 50 μL of a 48 mM/buffer solution of 2,2′-azobis(amidinopropane)dihydrochloride was added (final concentration 12 mM), and fluorescence intensity at fluorescence wavelength of 535 nm with excitation wavelength of 485 nm was measured at 2 min intervals for 90 min. The calibration curve was prepared between the Trolox final concentrations of 5 to 15 μM. The measurement was conducted by changing the concentration with n=3, and plotted on a diagram with time on the abscissa and the fluorescence intensity on the ordinate. Therewith evaluation was made using the value obtained by reducing the area under the curve for the blank from the area under the curve for the sample. The result was expressed as an equivalent to Trolox.

cerebral blood flow = assay: Cerebral blood flow by laser-Doppler in mouse cerebral infarction model; type: in vivo; conditions: mean ± SE, n=3
Experimental: The improvement effectiveness of SMTP-7 and alteplase on the cerebral blood flow was compared using the mouse cerebral infarction model.
SMTP-7 and alteplase were prepared as in Example 2. SMTP-7 and alteplase were administered in an amount of 10 mg/kg into the femoral vein 1 hour after the initiation of ischemia in a mouse cerebral infarction model, wherein 10% was administered by a bolus administration, and the rest by continuous administration over 30 min. Three mice were used for each condition.
The cerebral blood flow was measured at 6 time points, namely before the initiation of ischemia, immediately after the initiation of ischemia, and after the completion of the drug administration 0 hour (immediately after the completion), 1 hour, 3 hours, and 24 hours.
The cerebral blood flow measurement was conducted by cutting the head skin of a mouse to expose the cranial bone, and measuring the blood flow of the whole brain surfaces by a laser-Doppler apparatus (moorFLPI, Moor Instruments Ltd, UK). The analysis was conducted using moorFLPI (Version 2.1) by rating percentage (%) relative to the value before the initiation of ischemia of each group.

[2] = system: Mongolian gerbil cerebral infarction model; assay: Mongolian gerbil cerebral infarction model (acetic acid-induced thrombus): infarction area percentage and neurological symptom; type: in vivo; conditions: for Infarction area: evaluated 24 h; for Infarction area / Neurological scores: mean ± SE, n=6; for Neurological scores: score 0-4 at 24 h; for improvement rate of the infarction area percentage: 10 mg/kg, administration initiated 1 hour after the initiation of ischemia
Source text: Anesthesia was induced to a male Mongolian gerbil (body weight 55 to 65 g) by inhalation of 5% isoflurane (trade name Escain, Mylan Inc.), and maintained with 1 to 1.5% isoflurane. The Mongolian gerbil was fixed in a dorsal position, and the neck was dehaired and then disinfected with 70% ethanol. After median incision of the neck, the right common carotid artery was detached, clamped to block the blood flow temporarily, and coated with 100% acetic acid by 30 reciprocating motions so as to produce a thrombus. The blood vessel was reopened after 10 min of the blockage of the blood flow to transfer the thrombus by the blood stream into the brain to make it ischemic and generate cerebral infarction. The operating field was closed with an instant adhesive (trade name Aron Alpha (Krazy Glue), Toagosei Co., Ltd.) and disinfected with 70% ethanol.
Twenty four hours after the initiation of the operation neurological symptoms were observed as an indicator for cerebral infarction. Many types of neurological symptoms specific to cerebral infarction, such as extension of a hindlimb or circling to one direction, have been reported. Applying a modified evaluation method of the method proposed by Longa, et al. (Stroke 1989; 20:84-91) postoperative neurological symptoms were evaluated as per: no deficit, 0; extension of limb, 1; circling to one direction, 2; incline posture, 3; diminished motion, 4.
With respect to statistical analysis, for multiple comparisons was conducted firstly one-way analysis of variance (ANOVA) and then a Bonferroni test was conducted, if significant difference is detected. Significant difference was positively recognized with significance level 5% (P<0.05). All the results are expressed in mean±standard error.
After the evaluation of neurological symptoms according to the above method, the animal was decapitated under anesthesia with isoflurane. The cranial bone was exfoliated of skin and opened, and, after scission of optic nerve, the brain was extirpated and dipped in a physiological saline solution to remove attached body hairs, etc. The extirpated brain was placed in a brain matrix (RBM-1000C, ASI Instruments) to carry out coronal slicing from the frontal pole at thickness of 2 mm. The slices were dipped in 2% 2,3,5-triphenyl-2H-tetrazolium chloride (TTC), and incubated for staining at 37° C. for 30 min in a CO2 incubator. The colorless TTC is reduced by hydrogen liberated by the action of dehydrogenase contained in a normal cell converting to dark red colored water-insoluble 1,3,5-triphenylformazan (TPF), so that the normal cell is stained. Unstained area (white area) was defined as an infarction area. Meanwhile, the corpus callosum, which is commissural fibers connecting the right and left cerebral hemispheres, is not stained and is white, and therefore image processing for the analyses as described below was conducted excluding the corpus callosum.
After staining images of the brain slices were taken by a digital camera under a stereoscopic microscope. For analysis of the infarction area percentage, an image analysis software Image J (Version 1.4) was used. Full, excluding the corpus callosum, images of the taken 2nd, 3rd, and 4th brain slice images were converted to grayscale. From the grayscale images a histogram for the whole brain as the object scope was obtained showing in the ordinate the frequency of occurrence (frequency) at certain brightness, and showing in the abscissa the brightness (0 to 255). The sum from 0 to 255 was defined as the area size of the whole brain, and the sum from 160 to 219 was defined as the area size of the infarction area. Then the infarction area percentage was determined according to the following formula using the total area size of the infarction areas and the total area size of the whole brain, of the 3 brain slice images. Statistical analysis was conducted as above. […]

[3] = 10 mg/kg 1 hour after ischemia, 0 hr after completion of administration
[4] = 10 mg/kg 1 hour after ischemia, 1 hr after completion of administration
[5] = 10 mg/kg 1 hour after ischemia, 3 hr after completion of administration
[6] = 10 mg/kg 1 hour after ischemia, 24 hr after completion of administration
[7] = immediately after initiation of ischemia (before drug administration), group later given 10 mg/kg
[8] = 1 mg/kg i.v., administration initiated 1 hr after ischemia
[9] = 10 mg/kg i.v., administration initiated 1 hr after ischemia
[10] = 10 mg/kg i.v., administration initiated 3 hr after ischemia
[11] = 10 mg/kg i.v., administration initiated 6 hr after ischemia
[12] = 0.01 mg/kg i.v., administration initiated 1 hr after ischemia
[13] = 0.1 mg/kg i.v., administration initiated 1 hr after ischemia

Molecule	free radical scavenging activity, Trolox equivalent [1]	cerebral blood flow relative to the value before the initiation of ischemia (cerebral blood flow; [3])	cerebral blood flow relative to the value before the initiation of ischemia (cerebral blood flow; [4])	cerebral blood flow relative to the value before the initiation of ischemia (cerebral blood flow; [5])	cerebral blood flow relative to the value before the initiation of ischemia (cerebral blood flow; [6])	cerebral blood flow relative to the value before the initiation of ischemia (cerebral blood flow; [7])	Infarction area [2, 8]	Neurological scores [2, 8]	Infarction area [2, 9]	Neurological scores [2, 9]	Infarction area [2, 10]	Neurological scores [2, 10]	Infarction area [2, 11]	Neurological scores [2, 11]	improvement rate of the infarction area percentage [2]	Infarction area [2, 12]	Neurological scores [2, 12]	Infarction area [2, 13]	Neurological scores [2, 13]
CC(C)=CCC/C(C)=C/CCC1(C)Oc2c(c(O)cc3c2CN(C(Cc2c[nH]c4ccccc24)C(=O)O)C3=O)CC1O (centres unmarked) [SMTP-6]	3.73 ± 0.42 molTE/mol																		
CC(C)=CCC/C(C)=C/CC[C@@]1(C)Oc2c(c(O)cc3c2CN(CCC[C@@H](C(=O)O)N2Cc4c(cc(O)c5c4O[C@](C)(CC/C=C(\C)CCC=C(C)C)[C@@H](O)C5)C2=O)C3=O)C[C@@H]1O [SMTP-7]	2.08 ± 0.13 molTE/mol	43.74 ± 12.67%	44.48 ± 12.59%	48.90 ± 15.89%	76.01 ± 9.71%	34.17 ± 5.22%	11.4 ± 2.69%	2.67 ± 0.33	7.01 ± 0.56 %	1.50 ± 0.67	5.90 ± 0.36 %	1.67 ± 0.61	7.93 ± 1.64 %	2.00 ± 0.45	65.7%				
alteplase [reference compound]		56.45 ± 14.70%	73.49 ± 20.33%	66.83 ± 11.10%	71.63 ± 6.06%	27.30 ± 2.35%			5.43 ± 1.33 %	0.17 ± 0.17	11.0 ± 3.61%	1.33 ± 0.67	13.8 ± 2.40%	3.17 ± 0.48	78.9%	11.2 ± 2.74%	2.67 ± 0.56	9.67 ± 2.35%	2.00 ± 0.77
